Series [1] addresses T1, Platelet-activating factor acetylhydrolase (Homo sapiens, UniProt Q13093).
T1 sequence (Q13093 whole entry): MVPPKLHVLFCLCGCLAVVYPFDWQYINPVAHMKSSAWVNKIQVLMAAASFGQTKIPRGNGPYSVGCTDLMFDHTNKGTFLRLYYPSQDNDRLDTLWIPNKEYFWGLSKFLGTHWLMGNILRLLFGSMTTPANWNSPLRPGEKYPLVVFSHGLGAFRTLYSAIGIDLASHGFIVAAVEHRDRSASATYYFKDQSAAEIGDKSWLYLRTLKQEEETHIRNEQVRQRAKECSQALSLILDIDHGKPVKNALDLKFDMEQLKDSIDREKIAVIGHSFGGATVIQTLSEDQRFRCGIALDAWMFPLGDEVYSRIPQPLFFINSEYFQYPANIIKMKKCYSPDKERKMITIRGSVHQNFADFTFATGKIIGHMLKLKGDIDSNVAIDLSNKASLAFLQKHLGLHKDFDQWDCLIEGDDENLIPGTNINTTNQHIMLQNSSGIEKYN
Nature of the series: Inhibition of human recombinant Lp-PLA2 using 2-thio-PAF as substrate after 20 mins by CPM-based fluorescence assay.

Series [2] can be described thus: Inhibition of human recombinant PLA2-7B using 2-thio-PAF as substrate after 20 mins by CPM-based fluorescence assay.
For another series, the species on record is Homo sapiens. Nature of the series: Selectivity ratio of IC50 for human recombinant PLA2-7B to IC50 for human recombinant Lp-PLA2.
Series [3] deals with T1, Platelet-activating factor acetylhydrolase. Nature of the series: Inhibition of Lp-PLA2 in human whole plasma using 2-thio-PAF as substrate preincubated for 15 mins followed by substrate addition measured after 3 mins by CPM-based fluorescence assay. Format: cell-free.
The nature of series [4]: Lipophilicity, log D of the compound at pH 7.4 by reversed phase HPLC method. Format: physicochemical. As to conditions: buffer.
A short description of series [5]: Solubility of the compound in pH 7.4 phosphate buffered saline after 1 hr by chemiluminescent nitrogen detection assay. Format: physicochemical.
Series [6] in a line: Binding affinity to human serum albumin/alpha-1 acidglycoprotein after 6 mins by HPLC method. Format: ADME. The following applies: human serum albumin/alpha-1 acid glycoprotein, read-out: PB (converted).
A short description of series [7]: Apparent permeability of the compound after 3 hrs by HPLC-UV method. Format: physicochemical. As to conditions: not told.
For series [8], the target named is T1, Platelet-activating factor acetylhydrolase. As to the kind of experiment: Inhibition of human recombinant Lp-PLA2 using PED6 as substrate preincubated for 30 mins followed by substrate addition measured for 20 mins by fluorescence assay.
Series [9] has the same target. As to the kind of experiment: Binding affinity to N-terminal His6-tagged Lp-PLA2 (47 to 429 residues) (unknown origin) expressed in sf21 insect cells by ITC assay.

What is called IC50 is the midpoint of a concentration-inhibition curve. Usually chromatographic logD stands for a lipophilicity value derived from retention on a column. The solubility is how much of the substance goes into solution per volume. A lower solubility goes with a poorly soluble substance. One may read the Papp as a coefficient for how fast a substance crosses the barrier. One may read the Kd as the concentration at which binding is half-saturated. Higher therefore signals a looser complex.

Values after ≈ are worked out from the molar mass of the structure shown.

With `Cc1ccccc1-c1cc(Nc2nc(CCCO)cs2)ccc1C`, the values for the IC50 in [1], in [2] and in series [3] were 0.23 µM, more than 10 µM and 7.1 µM, respectively. Moreover, the Ratio IC50 in the series listed under Homo sapiens was more than 40.

Regarding `CCN(CC)CCN(Cc1ccc(-c2ccc(C(F)(F)F)cc2)cc1)C(=O)Cn1c(SCc2ccc(F)cc2)nc(=O)c2c1CCC2` [DARAPLADIB], the chromatographic logD in series [4] turned out to be 6.2. For the same molecule, the concentration for half-maximal inhibition (IC50) in series [2] was 0.063 µM. The molecule further yielded a solubility at 1 h in [5] of 8 µM (≈ 5.33 µg/mL). Further, in series [6], the fraction unbound at 0.1 h is 0.02. The apparent permeability coefficient (Papp) at 3 h in series [7] stood at 23 ×10⁻⁶ cm/s.

Regarding `CC(C)COc1cc(=O)n(C)c(=O)n1C`, in [8], the IC50 is 1000 µM.

In the case of `COc1cc(C)c(-c2ccccc2C)cc1Nc1nc(CC(CO)OC)cs1` (racemic), the IC50 in series [1] is 0.0036 µM; in series [2], 6.1 µM; in [3] it was 0.32 µM.

For the molecule `CC1(C)NC(=O)NC1=O`, in series [8], the IC50 was more than 1000 µM.

For the molecule `Cc1ccccc1-c1cc(C(=O)N2CCCC2)ccc1C`, the half-inhibitory concentration (IC50) was 30 µM in [1] and more than 100 µM in series [2].

Take `Cc1ccccc1-c1cc(Nc2nccs2)ccc1C`: the figures for the IC50 in series [1] and in [2] were 1.7 µM and 11 µM, respectively.

As to `NS(=O)(=O)c1ccccc1` [BENZENESULFONAMIDE], the IC50 in series [8] is more than 1000 µM. This molecule also yielded a Kd in series [9] of 3400 µM.

Molecule `COC(CO)Cn1ccc(Nc2cc(-c3ccccc3C)c(C)cc2OCCN)n1` (racemic) yielded a chromatographic logD in series [4] of 3.2. Besides, the half-inhibitory concentration (IC50) is 0.0014 µM in [1], more than 1 µM in [2] and 0.018 µM in series [3]. Also, the solubility at 1 h in series [5] amounted to 302 µM (≈ 124 µg/mL). Besides, in series [6], the fraction unbound at 0.1 h is 0.05. Further, in series [7], the Papp at 3 h worked out at 13 ×10⁻⁶ cm/s.

As for `Cc1ccccc1-c1cc(C(=O)N2CC=CC2)ccc1C`, the IC50 in series [1] worked out at 0.23 µM; in series [2] it was 89 µM.

With `Cc1ccc(C(=O)N2CC=CC2)cc1-c1ccccc1Cl`, the results for the IC50 in series [1] and in series [2] were 0.18 µM and more than 10 µM, respectively.

Turning to `Cc1ccccc1-c1cc(C(=O)c2nccs2)ccc1C`, the results for the IC50 in series [1] and in [2] were 2 µM and 3.2 µM, respectively.

As for `O=C(c1cccc(F)c1)N1CC=CC1`, in series [8], the IC50 was 500 µM. Further, the equilibrium dissociation constant (Kd) in [9] is 980 µM.

For the molecule `COC(CO)Cc1csc(Nc2ccc(C)c(-c3ccccc3C)c2)n1` (racemic), the IC50 in series [1] was 0.0095 µM; in series [2], more than 10 µM; in series [3], 0.56 µM. In addition, the Ratio IC50 in the series listed under Homo sapiens is more than 1000.

Consider `Cc1ccc(N)cc1-c1ccccc1Cl`, for which the results for the concentration for half-maximal inhibition (IC50) in series [1], in series [2] and in series [8] were 100 µM, 43 µM and 100 µM, respectively.

The molecule `COC(CO)Cc1csc(Nc2cc(-c3ccccc3C)c(C)cc2OCCN)n1` (racemic) came in with a chromatographic logD in series [4] of 3.4. For the same molecule, the 50% inhibitory concentration (IC50) is 0.0024 µM in series [1], more than 10 µM in series [2] and 0.028 µM in [3]. The solubility at 1 h in series [5] turned out to be 195 µM (≈ 83.4 µg/mL). The fraction unbound at 0.1 h in [6] was 0.03. Further, the Papp at 3 h in [7] was 21 ×10⁻⁶ cm/s.
